Article PMC7408547, “Bivalent Inhibitor with Selectivity for Trimeric MMP-9 Amplifies Neutrophil Chemotaxis and Enables Functional Studies on MMP-9 Proteoforms” (Cells, 2020)

How the values were obtained:
TACE/ADAM17 = target: T1, TACE/ADAM17 (Homo sapiens, UniProt P78536); test: TACE/ADAM17 fluorogenic peptide assay; assay type: biochemical; conditions: Mca-PLAQAV-Dpa-RSSSR-NH2 fluorogenic peptide, tested up to an inhibitor concentration of 50 µM
T1 construct: purchased R & D systems; host or cells: Sf 21 (baculovirus)
Description: Compounds 5 and 7 were synthesized as previously reported. Full-length human proMMP-9 was produced by recombinant expression in Sf9 insect cells and purified by gelatin-Sepharose chromatography as previously described. Stable full-length proMMP-9 monomers and trimers were separated by glycerol gradient ultracentrifugation as previously described. ProMMP-9 mixture and the separated monomers and trimers were activated by incubation with the catalytic domain of MMP-3 (cat. No. 444217, Merck Millipore, Darmstadt, Germany) as previously described. Activation of proMMP-9 was confirmed by a band shift of ±10 kDa, corresponding to the removal of the auto-inhibitory propeptide domain and by detection of gelatinolytic activity with a previously described gelatin degradation assay. MMP-9 monomers and trimers purified from human neutrophils were purchased (Cat. No. 444,231 and 444232, Sigma-Aldrich, St. Louis, MO, USA). Examples of sample purities and activations can be found in Supplementary Figure S1. Recombinant human proMMP-2 (CHO cell-derived), proMMP-3 (NS0 cell-derived), proMMP-7 (NS0 cell-derived) and proMMP-8 (NS0 cell-derived) were purchased from R & D systems (Minneapolis, MN, USA), dissolved in assay buffer (150 mM NaCl, 5 mM CaCl2, 0.01% Tween-20, 50 mM Tris, pH 7.4) to a concentration of 100 µg/mL and activated by incubation with 1 mM p-aminophenylmercuric acetate for, respectively, 1h, 6h, 2h and 1h. Activation of MMPs was confirmed by a band shift of approximately 10 kDa, corresponding to the removal of the propeptide domain. MMP-14/MT1-MMP (NS0 cell-derived) was also purchased from R & D systems (Minneapolis, MN, USA) and activated by incubation with recombinant human furin (cat. No. 1503-SE-010, R & D systems, Minneapolis, MO, USA) in activation buffer (50 mM Tris, 1 mM CaCl2, 0.5% Brij-35, pH 9) for 1.5 h and activity was tested in assay buffer (50 mM Tris, 3 mM CaCl2, 1 µM ZnCl2, pH 8.5). […] ADAM17/TACE (Sf 21 (baculovirus)-derived, R & D systems, Minneapolis, MO, USA) was diluted and evaluated in 25 mM Tris, 2.5 μM ZnCl2, 0.005% Brij-35, pH 9.0. All stocks of the compounds were evaluated for the presence of endotoxin using the EndoZyme II assay (Hyglos bioMérieux, Bernried am Starnberger See, Germany). […]
To determine the inhibition of gelatinolytic activity, we used a previously optimized gelatin degradation assay. […] Next, dye-quenched gelatin (DQ™-gelatin, Invitrogen, Carlsbad, CA, USA) was added at a final concentration of 2.5 µg/mL and the increase in fluorescence over time was measured with the CLARIOstar microplate reader (BMG Labtech, Ortenberg, Germany). […] Proteolytic activity was determined by linear regression of the fluorescence curve and the percentage inhibition was calculated through comparison with the positive control (no inhibitors). […]

U-87 cell line = test: U-87 cell proliferation (confluence, Incucyte); assay type: cell-based; conditions: up to a concentration of 20 µM; 17 h
Description: Toxicity of compounds 5 and 7 was evaluated in vitro on the U-87 cell line. Briefly, U-87 cells were seeded in 96-well plates (cat. No. 92096, TPP Techno Plastic Products, Trasadingen, Switzerland) at 2000 cells/well in DMEM FluoroBrite containing 10% FBS and incubated for 24 h. Cells were washed and further grown in DMEM FluoroBrite with 5% KnockOut™ Serum Replacement (Gibco, Waltham, MA, USA). Compounds 5 and 7 were added to the wells in a 1:2 dilution series starting at 20 µM and ending at 0.16 µM. To evaluate the effect of the compound on cell growth, confluence was determined every hour for 17h using the Incucyte® S3 Live-Cell Analysis System (Sartorius, Göttingen, Germany). Next, cells were stained with the LIVE/DEAD™ Viability/Cytotoxicity Kit for mammalian cells (Invitrogen, Carlsbad, CA, USA; cat. # L3224) and cell viability was evaluated. Data were normalized to the mean confluence of wells containing no inhibitors. To measure the stability of the compounds, fresh blood was collected from heathy mice by cardiac puncture with a heparin-coated needle and syringe and 30UI/mL heparin was added. Next, compound 5, compound 7 or vehicle (DMSO) was added to the blood at a final concentration of 500 µM and incubated at 37 °C. […] Background inhibition was subtracted and results were expressed as percentage inhibition.

T1 sequence (P78536 215-824): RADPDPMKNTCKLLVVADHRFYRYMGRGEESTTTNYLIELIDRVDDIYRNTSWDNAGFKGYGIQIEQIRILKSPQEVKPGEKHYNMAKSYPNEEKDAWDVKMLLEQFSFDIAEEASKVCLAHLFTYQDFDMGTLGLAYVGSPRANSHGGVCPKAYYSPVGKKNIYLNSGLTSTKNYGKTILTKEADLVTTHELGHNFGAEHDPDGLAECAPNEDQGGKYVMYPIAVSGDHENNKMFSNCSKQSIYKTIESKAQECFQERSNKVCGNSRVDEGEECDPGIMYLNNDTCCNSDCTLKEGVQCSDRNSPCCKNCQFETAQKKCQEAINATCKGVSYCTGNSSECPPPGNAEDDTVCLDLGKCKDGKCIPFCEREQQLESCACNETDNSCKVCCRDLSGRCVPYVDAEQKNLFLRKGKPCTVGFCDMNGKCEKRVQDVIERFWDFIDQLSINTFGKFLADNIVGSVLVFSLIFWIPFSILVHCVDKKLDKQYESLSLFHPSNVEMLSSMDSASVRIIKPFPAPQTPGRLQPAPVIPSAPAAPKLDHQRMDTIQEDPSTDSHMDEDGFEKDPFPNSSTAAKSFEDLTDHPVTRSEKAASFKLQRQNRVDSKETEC

SMILES	IC50 (TACE/ADAM17)	IC50 (TACE/ADAM17; listed as compound 5)	effect on proliferation of U-87 cells (U-87 cell line)	IC50 (TACE/ADAM17; listed as compound 7)
CC(C)[C@H](C(=O)O)N(CCNC(=O)c1ccccc1)S(=O)(=O)c1ccc(-c2ccccc2)cc1 [Compound 5]	no inhibition ^†	not inhibited	did not reduce proliferation	–
CC(C)[C@H](C(=O)O)N(CCNC(=O)c1cccc(C(=O)NCCN([C@@H](C(=O)O)C(C)C)S(=O)(=O)c2ccc(-c3ccccc3)cc2)c1)S(=O)(=O)c1ccc(-c2ccccc2)cc1 [Compound 7]	no inhibition ^†	–	did not reduce proliferation	not inhibited
